Reference: patent US20060229308A1, “Substituted pyrirmidin-4-ylamine analogues as vanilloid receptor ligands” (Neurogen Corporation, priority 2003, published 2006)

biological target: T1, human capsaicin receptor (Homo sapiens, UniProt Q8NER1); assay: Calcium mobilization assay, agonist response; assay type: cell-based; settings: capsaicin positive control, calcium mobilization in cells expressing human capsaicin receptor; read-out: approximate EC90 concentration
T1 construct: transfected with the pBK-CMV expression construct encoding the full length human capsaicin receptor using standard methods; expressed in transfected cells
T1 sequence (Q8NER1 whole entry): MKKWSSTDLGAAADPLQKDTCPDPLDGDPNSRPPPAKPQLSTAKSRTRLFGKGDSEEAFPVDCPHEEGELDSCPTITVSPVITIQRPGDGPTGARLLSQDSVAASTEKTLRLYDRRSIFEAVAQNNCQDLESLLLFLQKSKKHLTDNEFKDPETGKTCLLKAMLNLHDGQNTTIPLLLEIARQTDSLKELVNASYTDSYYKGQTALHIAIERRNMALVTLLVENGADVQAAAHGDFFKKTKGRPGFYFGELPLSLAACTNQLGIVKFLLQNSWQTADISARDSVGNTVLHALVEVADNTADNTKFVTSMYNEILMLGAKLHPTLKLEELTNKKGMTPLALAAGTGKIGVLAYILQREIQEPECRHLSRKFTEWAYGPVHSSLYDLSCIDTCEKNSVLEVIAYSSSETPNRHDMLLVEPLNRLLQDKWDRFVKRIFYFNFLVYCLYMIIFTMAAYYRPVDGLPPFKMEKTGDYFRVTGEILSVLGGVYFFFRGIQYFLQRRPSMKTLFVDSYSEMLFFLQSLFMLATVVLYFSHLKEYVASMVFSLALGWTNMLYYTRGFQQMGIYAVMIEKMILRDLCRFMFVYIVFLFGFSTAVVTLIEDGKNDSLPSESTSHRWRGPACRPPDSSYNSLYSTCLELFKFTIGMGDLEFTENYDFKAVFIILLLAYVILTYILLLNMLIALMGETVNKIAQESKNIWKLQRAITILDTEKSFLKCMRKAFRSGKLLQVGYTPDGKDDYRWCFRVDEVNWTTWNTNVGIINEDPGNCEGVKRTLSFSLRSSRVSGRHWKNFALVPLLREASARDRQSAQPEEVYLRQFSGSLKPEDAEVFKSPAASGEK
Procedure: Cells transfected with expression plasmids (as described in Example 4) and thereby expressing human capsaicin receptor are seeded and grown to 70-90% confluency in FALCON black-walled, clear-bottomed 96-well plates (#3904, BECTON-DICKINSON, Franklin Lakes, N.J.). The culture medium is emptied from the 96 well plates and FLUO-3 AM calcium sensitive dye (Molecular Probes, Eugene, Oreg.) is added to each well (dye solution: 1 mg FLUO-3 AM, 440 μL DMSO and 440 μl 20% pluronic acid in DMSO, diluted 1:250 in Krebs-Ringer HEPES (KRH) buffer (25 mM HEPES, 5 mM KCl, 0.96 mM NaH2PO4, 1 mM MgSO4, 2 mM CaCl2, 5 mM glucose, 1 mM probenecid, pH 7.4), 50 μl diluted solution per well). […]
To measure the ability of a test compound to agonize or antagonize a calcium mobilization response in cells expressing capsaicin receptors to capsaicin or other vanilloid agonist, the EC50 of the agonist capsaicin is first determined. […] Capsaicin-induced calcium mobilization is monitored using either FLUOROSKAN ASCENT (Labsystems; Franklin, Mass.) or FLIPR (fluorometric imaging plate reader system; Molecular Devices, Sunnyvale, Calif.) instruments. […] In this equation, y is the maximum fluorescence signal, x is the concentration of the agonist or antagonist (in this case, capsaicin), a is the Emax, b corresponds to the EC50 value and c is the Hill coefficient. […]

EC90 [nM]	SMILES
~100	COc1cc(CNC(=O)CCCC/C=C/C(C)C)ccc1O [capsaicin]

biological target: T1, human capsaicin receptor; assay: Calcium mobilization assay, determination of antagonist activity; assay type: cell-based; settings: 50% decrease in fluorescence response of cells expressing human capsaicin receptor exposed to capsaicin; Example 6
Source text: This Example illustrates the preparation of VR1-transfected cells and VR1-containing membrane preparations for use in capsaicin binding assays (Example 5).
A cDNA encoding full length human capsaicin receptor (SEQ ID NO:1, 2 or 3 of U.S. Pat. No. 6,482,611) was subcloned in the plasmid pBK-CMV (Stratagene, La Jolla, Calif.) for recombinant expression in mammalian cells.
Human embryonic kidney (HEK293) cells were transfected with the pBK-CMV expression construct encoding the full length human capsaicin receptor using standard methods. The transfected cells were selected for two weeks in media containing G418 (400 μg/ml) to obtain a pool of stably transfected cells. Independent clones were isolated from this pool by limiting dilution to obtain clonal stable cell lines for use in subsequent experiments.
This Example illustrates representative calcium mobilization assays for use in evaluating test compounds for agonist and antagonist activity.
Cells transfected with expression plasmids (as described in Example 4) and thereby expressing human capsaicin receptor are seeded and grown to 70-90% confluency in FALCON black-walled, clear-bottomed 96-well plates (#3904, BECTON-DICKINSON, Franklin Lakes, N.J.). The culture medium is emptied from the 96 well plates and FLUO-3 AM calcium sensitive dye (Molecular Probes, Eugene, Oreg.) is added to each well (dye solution: 1 mg FLUO-3 AM, 440 μL DMSO and 440 μl 20% pluronic acid in DMSO, diluted 1:250 in Krebs-Ringer HEPES (KRH) buffer (25 mM HEPES, 5 mM KCl, 0.96 mM NaH2PO4, 1 mM MgSO4, 2 mM CaCl2, 5 mM glucose, 1 mM probenecid, pH 7.4), 50 μl diluted solution per well). Plates are covered with aluminum foil and incubated at 37° C. for 1-2 hours in an environment containing 5% CO2. After the incubation, the dye is emptied from the plates, and the cells are washed once with KRH buffer, and resuspended in KRH buffer.
To measure the ability of a test compound to agonize or antagonize a calcium mobilization response in cells expressing capsaicin receptors to capsaicin or other vanilloid agonist, the EC50 of the agonist capsaicin is first determined. An additional 20 μl of KRH buffer and 1 μl DMSO is added to each well of cells, prepared as described above. 100 μl capsaicin in KRH buffer is automatically transferred by the FLIPR instrument to each well. Capsaicin-induced calcium mobilization is monitored using either FLUOROSKAN ASCENT (Labsystems; Franklin, Mass.) or FLIPR (fluorometric imaging plate reader system; Molecular Devices, Sunnyvale, Calif.) instruments. Data obtained between 30 and 60 seconds after agonist application are used to generate an 8-point concentration response curve, with final capsaicin concentrations of 1 nM to 3 μM. […] software (Synergy Software, Reading, Pa.) is used to fit the data to the equation: y=a*(1/(1+(b/x)^c)) to determine the 50% excitatory concentration (EC50) for the response. In this equation, y is the maximum fluorescence signal, x is the concentration of the agonist or antagonist (in this case, capsaicin), a is the Emax, b corresponds to the EC50 value and c is the Hill coefficient. Determination of Agonist Activity
Test compounds are dissolved in DMSO, diluted in 20 μl KRH buffer so that the final concentration of test compounds in the assay well is between 1 μM and 5 μM, and added to cells prepared as described above. The 96 well plates containing prepared cells and test compounds are incubated in the dark, at room temperature for 0.5 to 6 hours. It is important that the incubation not continue beyond 6 hours. Just prior to determining the fluorescence response, 100 μl capsaicin in KRH buffer at twice the EC50 concentration determined as described above is automatically added by the FLIPR instrument to each well of the 96 well plate for a final sample volume of 200 μl and a final capsaicin concentration equal to the EC50. The final concentration of test compounds in the assay wells is between 1 μM and 5 μM.

SMILES	IC50 [nM]
CC(C)(C)c1ccc(Nc2cc(-c3ccc(Cl)cc3)ncn2)cc1 [Compound 1, (4-tert-Butyl-phenyl)-[6-(4-chloro-phenyl)-pyrimidin-4-yl]-amine]	≤ 1000
COc1ccccc1-c1cc(Nc2ccc(C(C)(C)C)cc2)ncn1 [Compound 2, (4-tert-Butyl-phenyl)-[6-(2-meth-oxy-phenyl)-pyrimidin-4-yl]-amine]	≤ 1000
COc1ccc(-c2cc(Nc3ccc(C(C)(C)C)cc3)ncn2)cc1 [Compound 4, (4-tert-Butyl-phenyl)-[6-(4-meth-oxy-phenyl)-pyrimidin-4-yl]-amine]	≤ 1000
CC(C)(C)c1ccc(Nc2cc(-c3ccccc3C(F)(F)F)ncn2)cc1 [Compound 5, (4-tert-Butyl-phenyl)-[6-(2-tri-fluoromethyl-phenyl)-pyri-midin-4-yl]-amine]	≤ 1000
CC(C)(C)c1ccc(Nc2cc(-c3cccc(F)c3)ncn2)cc1 [Compound 6, (4-tert-Butyl-phenyl)-[6-(3-fluoro-phenyl)-pyrimidin-4-yl]-amine]	≤ 1000
Cc1cccc(-c2cc(Nc3ccc(C(C)(C)C)cc3)ncn2)c1 [Compound 7, (4-tert-Butyl-phenyl)-(6-m-tolyl-pyrimidin-4-yl)-amine]	≤ 1000
CC(C)(C)c1ccc(Nc2cc(-c3cccc(OC(F)(F)F)c3)ncn2)cc1 [Compound 8, (4-tert-Butyl-phenyl)-[6-(3-tri-fluoromethoxy-phenyl)-pyri-midin-4-yl]-amine]	≤ 1000
COc1cccc(-c2nc(COCC(C)C)nc(Nc3ccc(C(C)(C)C)cc3)n2)c1 [Compound 11, (4-tert-Butyl-phenyl)-[4-iso-butoxymethyl-6-(3-meth-oxy-phenyl)-[1,3,5]tri-azin-2-yl]-amine]	≤ 1000
COc1cccc(-c2nc(C)nc(Nc3ccc(C(F)(F)F)cc3)c2C)c1 [Compound 15, [6-(3-Methoxy-phenyl)-2,5-di-methyl-pyrimidin-4-yl]-(4-tri-fluoromethyl-phenyl)-amine]	≤ 1000
COc1cccc(-c2nc(N3CCOCC3)nc(Nc3ccc(C(F)(F)F)cc3)c2C)c1 [Compound 18, [6-(3-Methoxy-phenyl)-5-meth-yl-2-morpholin-4-yl-pyrimidin-4-yl]-(4-tri-fluoromethyl-phenyl)-amine]	≤ 1000
COc1cccc(-c2nc(N3CCOCC3)nc(Nc3ccc(C(C)(C)C)cc3)c2C)c1 [Compound 19, (4-tert-Butyl-phenyl)-[6-(3-meth-oxy-phenyl)-5-methyl-2-mor-pholin-4-yl-pyrimidin-4-yl]-amine]	≤ 1000
CC(C)(C)c1ccc(Nc2cc(-c3ccccc3)ncn2)cc1 [Compound 20, (4-tert-Butyl-phenyl)-(6-phenyl-pyrimidin-4-yl)-amine]	≤ 1000
COc1ccc(-c2cc(Nc3ccc(C(C)(C)C)cc3)ncn2)cc1OC [Compound 21, (4-tert-Butyl-phenyl)-[6-(3,4-di-methoxy-phenyl)-pyrimidin-4-yl]-amine]	≤ 1000
COc1cccc(-c2ncnc(Nc3ccc(C4CCCCC4)cc3)c2N)c1 [Compound 24, N^4-(4-Cyclohexyl-phenyl)-6-(3-meth-oxy-phenyl)-pyrimi-dine-4,5-diamine]	≤ 1000

Results, then the compound that gave them:

IC50 [nM]	SMILES
≤ 1000	COc1cccc(-c2cc(Nc3ccc(C(C)(C)C)cc3)ncn2)c1 [Compound 3, (4-tert-Butyl-phenyl)-[6-(3-meth-oxy-phenyl)-pyrimidin-4-yl]-amine]
≤ 1000	CCOc1cccc(-c2cc(Nc3ccc(C(C)(C)C)cc3)ncn2)c1 [Compound 9, (4-tert-Butyl-phenyl)-[6-(3-eth-oxy-phenyl)-pyrimidin-4-yl]-amine]
≤ 1000	COc1cccc(-c2ncnc(Nc3ccc(C(C)(C)C)cc3)c2C)c1 [Compound 10, (4-tert-Butyl-phenyl)-[6-(3-meth-oxy-phenyl)-5-methyl-pyrimidin-4-yl]-amine]
≤ 1000	CCc1c(Nc2ccc(C(C)(C)C)cc2)ncnc1-c1cccc(OC)c1 [Compound 12, (4-tert-Butyl-phenyl)-[5-ethyl-6-(3-meth-oxy-phenyl)-pyrimi-din-4-yl]-amine]
≤ 1000	CCc1c(Nc2ccc(C(F)(F)F)cc2)ncnc1-c1cccc(OC)c1 [Compound 13, [5-Ethyl-6-(3-methoxy-phenyl)-pyrimidin-4-yl]-(4-tri-fluoromethyl-phenyl)-amine]
≤ 1000	COc1cccc(-c2nc(C)nc(Nc3ccc(C(C)(C)C)cc3)c2C)c1 [Compound 14, (4-tert-Butyl-phenyl)-[6-(3-meth-oxy-phenyl)-2,5-di-methyl-pyrimidin-4-yl]-amine]
≤ 1000	COc1cncc(-c2ncnc(Nc3ccc(C(C)(C)C)cc3)c2C)c1 [Compound 16, (4-tert-Butyl-phenyl)-[6-(5-meth-oxy-pyridin-3-yl)-5-meth-yl-pyrimidin-4-yl]-amine]
≤ 1000	COc1cccc(-c2ncnc(Nc3ccc(C(C)(C)C)cc3)c2N)c1 [Compound 17, N^4-(4-tert-Butyl-phenyl)-6-(3-meth-oxy-phenyl)-pyrimidine-4,5-di-amine]
≤ 1000	COc1cccc(-c2ncnc(Nc3ccc(C(F)(F)F)cc3)c2N)c1 [Compound 23, 6-(3-Methoxy-phenyl)-N^4-(4-tri-fluoromethyl-phenyl)-pyrimi-dine-4,5-diamine]
